Measurements as given in ChEMBL document CHEMBL1137718, “Topological descriptors in modeling the agonistic activity of human A3 adenosine receptor ligands: the derivatives of 2-chloro-N(6)-substituted-4'-thioadenosine-5'-uronamide” (Eur J Med Chem, 2009).
pKi: −log10 of the molar value.

Molecular target: T1, Adenosine receptor A3 (Homo sapiens, UniProt P0DMS8)
T1 sequence (P0DMS8 whole entry): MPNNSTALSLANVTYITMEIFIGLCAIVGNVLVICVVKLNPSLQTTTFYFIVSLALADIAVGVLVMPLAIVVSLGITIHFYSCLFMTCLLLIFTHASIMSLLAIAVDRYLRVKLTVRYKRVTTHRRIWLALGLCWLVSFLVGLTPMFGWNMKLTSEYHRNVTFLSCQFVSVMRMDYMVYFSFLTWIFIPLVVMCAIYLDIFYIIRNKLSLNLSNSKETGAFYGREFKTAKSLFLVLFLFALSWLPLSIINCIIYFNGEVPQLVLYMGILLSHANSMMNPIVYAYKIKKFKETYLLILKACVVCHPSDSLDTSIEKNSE
Assay: Displacement of [125I][…] from human adenosine A3 receptor expressed in CHO cells
Type: cell-based

pKi	Structure (SMILES)
7.76	CNc1nc(Cl)nc2c1ncn2[C@@H]1O[C@H](C(=O)NCc2cccc(F)c2)[C@@H](O)[C@H]1O
4.31	Cc1ccccc1CNc1nc(Cl)nc2c1ncn2[C@@H]1O[C@H](C(=O)N2CCC(Cc3ccccc3)CC2)[C@@H](O)[C@H]1O
6.46	O=C(NCCC(c1ccccc1)c1ccccc1)[C@H]1O[C@@H](n2cnc3c(NCc4cccc(I)c4)nc(Cl)nc32)[C@H](O)[C@@H]1O
6.06	O=C([C@H]1S[C@@H](n2cnc3c(NCc4cccc(I)c4)nc(Cl)nc32)[C@H](O)[C@@H]1O)N1CCC(Cc2ccccc2)CC1
6.36	O=C(NCCc1ccccc1)[C@H]1O[C@@H](n2cnc3c(NCc4cccc(I)c4)nc(Cl)nc32)[C@H](O)[C@@H]1O
8.60	CCNC(=O)[C@H]1O[C@@H](n2cnc3c(NCc4ccccc4C)nc(Cl)nc32)[C@H](O)[C@@H]1O
7.56	Cc1ccccc1CNc1nc(Cl)nc2c1ncn2[C@@H]1O[C@H](C(=O)NC2CC2)[C@@H](O)[C@H]1O
7.53	Cc1ccccc1CNc1nc(Cl)nc2c1ncn2[C@@H]1O[C@H](C(=O)NCC2CC2)[C@@H](O)[C@H]1O
7.74	O=C(NC1CCC1)[C@H]1S[C@@H](n2cnc3c(NCc4cccc(I)c4)nc(Cl)nc32)[C@H](O)[C@@H]1O
6.29	O=C([C@H]1S[C@@H](n2cnc3c(NCc4cccc(I)c4)nc(Cl)nc32)[C@H](O)[C@@H]1O)N1CCOCC1
5.12	Cc1ccccc1CNc1nc(Cl)nc2c1ncn2[C@@H]1O[C@H](C(=O)N2CCOCC2)[C@@H](O)[C@H]1O
6.51	O=C(NCc1cccc(Cl)c1)[C@H]1O[C@@H](n2cnc3c(NCc4cccc(I)c4)nc(Cl)nc32)[C@H](O)[C@@H]1O
5.82	CNc1nc(Cl)nc2c1ncn2[C@@H]1O[C@H](C(=O)N(C)C)[C@@H](O)[C@H]1O
5.57	CNc1nc(Cl)nc2c1ncn2[C@@H]1O[C@H](C(=O)N2CCN(c3ccc(F)cc3)CC2)[C@@H](O)[C@H]1O
9.40	CNC(=O)[C@H]1O[C@@H](n2cnc3c(N)nc(Cl)nc32)[C@H](O)[C@@H]1O
8.96	CNc1nc(Cl)nc2c1ncn2[C@@H]1O[C@H](C(=O)NCC2CC2)[C@@H](O)[C@H]1O
8.79	CNc1nc(Cl)nc2c1ncn2[C@@H]1O[C@H](C(=O)NCCC(C)C)[C@@H](O)[C@H]1O
5.41	CNc1nc(Cl)nc2c1ncn2[C@@H]1O[C@H](C(=O)N2CCOCC2)[C@@H](O)[C@H]1O

pKi	Structure (SMILES)
5.46	CNc1nc(Cl)nc2c1ncn2[C@@H]1O[C@H](C(=O)N2CCC(Cc3ccccc3)CC2)[C@@H](O)[C@H]1O
9.05	CCNC(=O)[C@H]1S[C@@H](n2cnc3c(NCc4cccc(I)c4)nc(Cl)nc32)[C@H](O)[C@@H]1O
7.38	CC(C)CCNC(=O)[C@H]1O[C@@H](n2cnc3c(NCc4cccc(I)c4)nc(Cl)nc32)[C@H](O)[C@@H]1O
8.53	O=C(NC1CC1)[C@H]1S[C@@H](n2cnc3c(NCc4cccc(I)c4)nc(Cl)nc32)[C@H](O)[C@@H]1O
8.25	O=C(NC1CC1)[C@H]1S[C@@H](n2cnc3c(NC4CC4)nc(Cl)nc32)[C@H](O)[C@@H]1O
7.07	CNc1nc(Cl)nc2c1ncn2[C@@H]1O[C@H](C(=O)NCCc2cccc(F)c2)[C@@H](O)[C@H]1O
8.65	CNC(=O)[C@H]1O[C@@H](n2cnc3c(NC4CC4)nc(Cl)nc32)[C@H](O)[C@@H]1O
9.17	CCNC(=O)[C@H]1O[C@@H](n2cnc3c(NC4CC4)nc(Cl)nc32)[C@H](O)[C@@H]1O
5.40	O=C([C@H]1O[C@@H](n2cnc3c(NC4CC4)nc(Cl)nc32)[C@H](O)[C@@H]1O)N1CCC(Cc2ccccc2)CC1
8.37	CNC(=O)[C@H]1S[C@@H](n2cnc3c(NC4CCCC4)nc(Cl)nc32)[C@H](O)[C@@H]1O
5.84	O=C([C@H]1O[C@@H](n2cnc3c(NCc4cccc(I)c4)nc(Cl)nc32)[C@H](O)[C@@H]1O)N1CCN(c2ccc(F)cc2)CC1
6.45	O=C(NCc1cccc(C(F)(F)F)c1)[C@H]1O[C@@H](n2cnc3c(NCc4cccc(I)c4)nc(Cl)nc32)[C@H](O)[C@@H]1O
6.20	Cc1ccccc1CNc1nc(Cl)nc2c1ncn2[C@@H]1O[C@H](C(=O)N(C)C)[C@@H](O)[C@H]1O
8.44	O=C(NCC1CC1)[C@H]1S[C@@H](n2cnc3c(NCc4cccc(I)c4)nc(Cl)nc32)[C@H](O)[C@@H]1O
8.66	CNC(=O)[C@H]1O[C@@H](n2cnc3c(NCc4ccccc4C)nc(Cl)nc32)[C@H](O)[C@@H]1O
6.38	CNc1nc(Cl)nc2c1ncn2[C@@H]1O[C@H](C(=O)NCCC(c2ccccc2)c2ccccc2)[C@@H](O)[C@H]1O
8.55	CNc1nc(Cl)nc2c1ncn2[C@@H]1O[C@H](C(=O)NC2CC2)[C@@H](O)[C@H]1O
5.35	O=C([C@H]1O[C@@H](n2cnc3c(NC4CC4)nc(Cl)nc32)[C@H](O)[C@@H]1O)N1CCOCC1
